Calls of active or inactive are those of the source. The rule behind the calls is not given here.
Tests used:
[1] = Induction of apoptosis in C57BL/6 mouse dendritic cells assessed as necrotic cells at 25 uM after 18 hrs using annexin V-propidium iodide and annexin V staining by flow cytometry; assay type: cell-based
[2] = Induction of apoptosis in C57BL/6 mouse dendritic cells assessed as viable cells at 5 uM after 18 hrs using annexin V-propidium iodide and annexin V staining by flow cytometry; assay type: cell-based; details: read-out: Activity
[3] = Induction of apoptosis in C57BL/6 mouse dendritic cells assessed as late apoptotic cells at 5 uM after 18 hrs using annexin V-propidium iodide and annexin V staining by flow cytometry; assay type: cell-based
[4] = Induction of apoptosis in C57BL/6 mouse dendritic cells assessed as early apoptotic cells at 5 uM after 18 hrs using annexin V-propidium iodide and annexin V staining by flow cytometry; assay type: cell-based
[5] = Induction of apoptosis in C57BL/6 mouse dendritic cells assessed as necrotic cells at 5 uM after 18 hrs using annexin V-propidium iodide and annexin V staining by flow cytometry; assay type: cell-based
[6] = Cytotoxicity against C57BL/6 mouse immature bone marrow-derived dendritic cells assessed as reduction of cell survival at >100 uM after 48 hrs by propidium iodide exclusion staining based flow cytometry
[7] = Induction of apoptosis in C57BL/6 mouse dendritic cells assessed as late apoptotic cells at 25 uM after 18 hrs using annexin V-propidium iodide and annexin V staining by flow cytometry; assay type: cell-based
[8] = Induction of apoptosis in C57BL/6 mouse dendritic cells assessed as early apoptotic cells at 25 uM after 18 hrs using annexin V-propidium iodide and annexin V staining by flow cytometry; assay type: cell-based
[9] = Induction of apoptosis in C57BL/6 mouse dendritic cells assessed as […] viable cells at 25 uM after 18 hrs using annexin V-propidium iodide and annexin V staining by flow cytometry; assay type: cell-based; details: read-out: Activity
[10] = Induction of apoptosis in C57BL/6 mouse dendritic cells assessed as necrotic cells at 50 uM after 18 hrs using annexin V-propidium iodide and annexin V staining by flow cytometry; assay type: cell-based
[11] = Induction of apoptosis in C57BL/6 mouse dendritic cells assessed as late apoptotic cells at 50 uM after 18 hrs using annexin V-propidium iodide and annexin V staining by flow cytometry; assay type: cell-based
[12] = Induction of apoptosis in C57BL/6 mouse dendritic cells assessed as early apoptotic cells at 50 uM after 18 hrs using annexin V-propidium iodide and annexin V staining by flow cytometry; assay type: cell-based
[13] = Induction of apoptosis in C57BL/6 mouse dendritic cells assessed as viable cells at 50 uM after 18 hrs using annexin V-propidium iodide and annexin V staining by flow cytometry; assay type: cell-based; details: read-out: Activity
[14] = Induction of apoptosis in C57BL/6 mouse dendritic cells assessed as necrotic cells at 5 uM after 72 hrs using annexin V-propidium iodide and annexin V staining by flow cytometry; assay type: cell-based
[15] = Induction of apoptosis in C57BL/6 mouse dendritic cells assessed as late apoptotic cells at 5 uM after 72 hrs using annexin V-propidium iodide and annexin V staining by flow cytometry; assay type: cell-based
[16] = Induction of apoptosis in C57BL/6 mouse dendritic cells assessed as early apoptotic cells at 5 uM after 72 hrs using annexin V-propidium iodide and annexin V staining by flow cytometry; assay type: cell-based
[17] = Induction of apoptosis in C57BL/6 mouse dendritic cells assessed as viable cells at 5 uM after 72 hrs using annexin V-propidium iodide and annexin V staining by flow cytometry; assay type: cell-based; details: read-out: Activity
[18] = Induction of apoptosis in C57BL/6 mouse dendritic cells assessed as necrotic cells at 25 uM after 72 hrs using annexin V-propidium iodide and annexin V staining by flow cytometry; assay type: cell-based
[19] = Induction of apoptosis in C57BL/6 mouse dendritic cell assessed as early apoptotic cells at 50uM after 18 hrs using annexin V-propidium iodide staining by flow cytometry; assay type: cell-based
[20] = Induction of apoptosis in C57BL/6 mouse dendritic cells assessed as late apoptotic cells at 25 uM after 72 hrs using annexin V-propidium iodide and annexin V staining by flow cytometry; assay type: cell-based
[21] = Induction of apoptosis in C57BL/6 mouse dendritic cells assessed as viable cells at 25 uM after 72 hrs using annexin V-propidium iodide and annexin V staining by flow cytometry; assay type: cell-based; details: read-out: Activity
[22] = Induction of apoptosis in C57BL/6 mouse dendritic cells assessed as necrotic cells at 50 uM after 72 hrs using annexin V-propidium iodide and annexin V staining by flow cytometry; assay type: cell-based
[23] = Induction of apoptosis in C57BL/6 mouse dendritic cells assessed as late apoptotic cells at 50 uM after 72 hrs using annexin V-propidium iodide and annexin V staining by flow cytometry; assay type: cell-based
[24] = Induction of apoptosis in C57BL/6 mouse dendritic cells assessed as early apoptotic cells at 50 uM after 72 hrs using annexin V-propidium iodide and annexin V staining by flow cytometry; assay type: cell-based
[25] = Induction of apoptosis in C57BL/6 mouse dendritic cells assessed as viable cells at 50 uM after 72 hrs using annexin V-propidium iodide and annexin V staining by flow cytometry; assay type: cell-based; details: read-out: Activity
[26] = Cytotoxicity against C57BL/6 mouse immature bone marrow-derived dendritic cells at 5 uM after 72 to 96 hrs by propidium iodide exclusion staining based flow cytometry; assay type: cell-based
dendritic [27] = experiment: Immunomodulatory effect in Leishmania major uninfected C57BL/6 mouse bone marrow dendritic cells assessed as expression of MHC-2 at 5 to 50 uM after 18 hrs by flow cytometry; assay type: functional, cell-based
dendritic [28] = experiment: Immunomodulatory effect in Leishmania major uninfected C57BL/6 mouse bone marrow dendritic cells assessed as CD40 expression at 5 to 50 uM after 18 hrs by flow cytometry; assay type: functional, cell-based
dendritic [29] = experiment: Immunomodulatory effect in Leishmania major uninfected C57BL/6 mouse bone marrow dendritic cells assessed as CD54 expression at 5 to 50 uM after 18 hrs by flow cytometry; assay type: functional, cell-based
dendritic [30] = experiment: Immunomodulatory effect in Leishmania major uninfected C57BL/6 mouse bone marrow dendritic cells assessed as CD86 expression at 5 to 50 uM after 18 hrs by flow cytometry; assay type: functional, cell-based
dendritic [31] = experiment: Immunomodulatory effect in Leishmania major Leishmania major infected sC57BL/6 mouse bone marrow dendritic cells assessed as CD40 expression at 5 to 50 uM after 18 hrs by flow cytometry; assay type: functional, cell-based; details: C57BL/6
dendritic [32] = experiment: Immunomodulatory effect in Leishmania major Leishmania major infected sC57BL/6 mouse bone marrow dendritic cells assessed as CD54 expression at 5 to 50 uM after 18 hrs by flow cytometry; assay type: functional, cell-based; details: C57BL/6
dendritic [33] = experiment: Immunomodulatory effect in Leishmania major Leishmania major infected sC57BL/6 mouse bone marrow dendritic cells assessed as CD86 expression at 5 to 50 uM after 18 hrs by flow cytometry; assay type: functional, cell-based; details: C57BL/6
Mus musculus [34] = experiment: Immunomodulatory effect in Leishmania major infected C57BL/6 mouse assessed as levels of CD11c+ and MHC-2+ in dendritic cells at 20 ug administered topically measured after 48 hrs by FACS method; assay type: functional, organism-based
Mus musculus [35] = experiment: Immunomodulatory effect in Leishmania major infected C57BL/6 mouse assessed as levels of CD11c+ and MHC-2+ in dendritic cells at 200 ug administered topically measured after 48 hrs by FACS method; assay type: functional, organism-based
dendritic [36] = experiment: Immunomodulatory effect in uninfected C57BL/6 mouse dendritic cells assessed as TNF-alpha production after 18 hrs by ELISA; assay type: functional, cell-based
dendritic [37] = experiment: Immunomodulatory effect in Leishmania major infected C57BL/6 mouse dendritic cells assessed as TNF-alpha production after 18 hrs by ELISA; assay type: functional, cell-based
dendritic [38] = experiment: Immunomodulatory effect in uninfected C57BL/6 mouse dendritic cells assessed as IL-12p40 production after 18 hrs by ELISA; assay type: functional, cell-based
dendritic [39] = experiment: Immunomodulatory effect in Leishmania major infected C57BL/6 mouse dendritic cells assessed as IL-12p40 production after 18 hrs by ELISA; assay type: functional, cell-based
dendritic [40] = experiment: Immunomodulatory effect in uninfected C57BL/6 mouse dendritic cells assessed as IL-12p70 production after 18 hrs by ELISA; assay type: functional, cell-based
dendritic [41] = experiment: Immunomodulatory effect in Leishmania major infected C57BL/6 mouse dendritic cells assessed as IL-12p70 production after 18 hrs by ELISA; assay type: functional, cell-based
dendritic [42] = experiment: Immunomodulatory effect in uninfected C57BL/6 mouse dendritic cells assessed as IL-10 production after 18 hrs by ELISA; assay type: functional, cell-based
dendritic [43] = experiment: Immunomodulatory effect in Leishmania major infected C57BL/6 mouse dendritic cells assessed as IL-10 production after 18 hrs by ELISA; assay type: functional, cell-based
dendritic [44] = experiment: Induction of nitric oxide release in Leishmania major amastigotes infected C57BL/6 mouse dendritic cells assessed as nitrite production after 72 hrs; assay type: functional, cell-based
Leishmania major = experiment: Antileishmenia activity against Leishmania major amastigotes infected in C57BL/6 mouse dendritic cells assessed as decrease in intracellular parasite amastigotes level at 50 uM by light microscopy; assay type: functional, organism-based
dendritic [45] = experiment: Effect on antigen specific CD4+ T cells expansion by Leishmania major amastigotes infected C57BL/6 mouse dendritic cells assessed as increase in [3H]thymidine incorporation at 50 uM after 72 hrs; assay type: functional, cell-based
dendritic [46] = experiment: Effect on antigen specific CD8+ T cells expansion by Leishmania major amastigotes infected C57BL/6 mouse dendritic cells assessed as increase in [3H]thymidine incorporation at 50 uM after 72 hrs; assay type: functional, cell-based
Homo sapiens = organism: Homo sapiens; experiment: Plasma concentration in leishmaniasis patient during last week of 4-week treatment course; assay type: ADME, organism-based; details: in vivo
dendritic [47] = experiment: Immunomodulatory effect in Leishmania major Leishmania major infected sC57BL/6 mouse bone marrow dendritic cells assessed as MHC-2 expression at 5 to 50 uM after 18 hrs by flow cytometry; assay type: functional, cell-based; details: C57BL/6

CCCCCCCCCCCCCCCCOP(=O)([O-])OCC[N+](C)(C)C [MILTEFOSINE]
Activity [1]: 5.83% | viability at 18 h, 5 µM [2]: 84% | Activity [3]: 11.41% | Activity [4]: 20.7% | Activity [5]: 3.91% | Activity [6]: Toxic | Activity [7]: 15.89% | Activity [8]: 19.91% | viability at 18 h, 25 µM [9]: 58.4% | Activity [10]: 6.6% | Activity [11]: 18.57% | Activity [12]: 23.15% | viability at 18 h, 50 µM [13]: 51.7% | Activity [14]: 5.16% | Activity [15]: 35.67% | Activity [16]: 23.15% | viability at 72 h, 5 µM [17]: 36% | Activity [18]: 6.2% | Activity [19]: 43.18% | Activity [20]: 22.72% | viability at 72 h, 25 µM [21]: 28.9% | Activity [22]: 6.56% | Activity [23]: 54.56% | Activity [24]: 21.16% | viability at 72 h, 50 µM [25]: 17.7% | Activity [26]: Active | Activity (dendritic [27]): inactive | Activity (dendritic [28]): inactive | Activity (dendritic [29]): inactive | Activity (dendritic [30]): inactive | Activity (dendritic [31]): inactive | Activity (dendritic [32]): inactive | Activity (dendritic [33]): inactive | Activity (Mus musculus [34]): inactive | Activity (Mus musculus [35]): inactive | Activity (dendritic [36]): inactive | Activity (dendritic [37]): inactive | Activity (dendritic [38]): inactive | Activity (dendritic [39]): inactive | Activity (dendritic [40]): inactive | Activity (dendritic [41]): inactive | Activity (dendritic [42]): inactive | Activity (dendritic [43]): inactive | Activity (dendritic [44]): inactive | inhibition (Leishmania major): Dose-dependent effect | Activity (dendritic [45]): inactive | Activity (dendritic [46]): inactive | Cp (Homo sapiens): 30800 ng/mL | Activity (dendritic [47]): inactive

From ChEMBL document CHEMBL1212797, “Miltefosine efficiently eliminates Leishmania major amastigotes from infected murine dendritic cells without altering their immune functions” (Antimicrob Agents Chemother, 2010)
